Experiments:
Golden apple pulp = experiment: Foliar fertilization of the pulp of Golden apples; type: in vivo; settings: 30 kg/Ha, treatment last week of April
Experimental: A first experiment was carried out to measure the foliar fertilization of Golden apples. The treatment was carried out the last week of April using a 3% weight suspension of the fertilizer as claimed in water (30 kg/1000 l water/Ha).

[1] = Salt index of the fertilizer; type: physicochemical

[Ca+2].[Cl-].[Cl-] [CaCl2, calcium chloride]
Calcium (Golden apple pulp): 24 ppm
salt index [1]: 87

Reference: patent publication US12258299B2, “Permanent eco-fertilizer against fruit physiological disorders and pests” (S.A. Reverté Productos Minerales, priority 2019, dated 2025)
